Consider 2 compounds from PMC11643494, “Structure–Activity Relationship Studies in a Series of 2-Aryloxy-N-(pyrimidin-5-yl)acetamide Inhibitors of SLACK Potassium Channels” (Molecules, 2024).

Broadly, the IC50 is the concentration needed to halve the response being measured. A higher IC50 goes with weaker potency in that assay.

The target in the assay is T1, Mouse WT SLACK (Mus musculus, UniProt Q6ZPR4).
T1 construct: expressed in transfected cells; host or cells: CHO-K1
T1 sequence (Q6ZPR4 1-1224): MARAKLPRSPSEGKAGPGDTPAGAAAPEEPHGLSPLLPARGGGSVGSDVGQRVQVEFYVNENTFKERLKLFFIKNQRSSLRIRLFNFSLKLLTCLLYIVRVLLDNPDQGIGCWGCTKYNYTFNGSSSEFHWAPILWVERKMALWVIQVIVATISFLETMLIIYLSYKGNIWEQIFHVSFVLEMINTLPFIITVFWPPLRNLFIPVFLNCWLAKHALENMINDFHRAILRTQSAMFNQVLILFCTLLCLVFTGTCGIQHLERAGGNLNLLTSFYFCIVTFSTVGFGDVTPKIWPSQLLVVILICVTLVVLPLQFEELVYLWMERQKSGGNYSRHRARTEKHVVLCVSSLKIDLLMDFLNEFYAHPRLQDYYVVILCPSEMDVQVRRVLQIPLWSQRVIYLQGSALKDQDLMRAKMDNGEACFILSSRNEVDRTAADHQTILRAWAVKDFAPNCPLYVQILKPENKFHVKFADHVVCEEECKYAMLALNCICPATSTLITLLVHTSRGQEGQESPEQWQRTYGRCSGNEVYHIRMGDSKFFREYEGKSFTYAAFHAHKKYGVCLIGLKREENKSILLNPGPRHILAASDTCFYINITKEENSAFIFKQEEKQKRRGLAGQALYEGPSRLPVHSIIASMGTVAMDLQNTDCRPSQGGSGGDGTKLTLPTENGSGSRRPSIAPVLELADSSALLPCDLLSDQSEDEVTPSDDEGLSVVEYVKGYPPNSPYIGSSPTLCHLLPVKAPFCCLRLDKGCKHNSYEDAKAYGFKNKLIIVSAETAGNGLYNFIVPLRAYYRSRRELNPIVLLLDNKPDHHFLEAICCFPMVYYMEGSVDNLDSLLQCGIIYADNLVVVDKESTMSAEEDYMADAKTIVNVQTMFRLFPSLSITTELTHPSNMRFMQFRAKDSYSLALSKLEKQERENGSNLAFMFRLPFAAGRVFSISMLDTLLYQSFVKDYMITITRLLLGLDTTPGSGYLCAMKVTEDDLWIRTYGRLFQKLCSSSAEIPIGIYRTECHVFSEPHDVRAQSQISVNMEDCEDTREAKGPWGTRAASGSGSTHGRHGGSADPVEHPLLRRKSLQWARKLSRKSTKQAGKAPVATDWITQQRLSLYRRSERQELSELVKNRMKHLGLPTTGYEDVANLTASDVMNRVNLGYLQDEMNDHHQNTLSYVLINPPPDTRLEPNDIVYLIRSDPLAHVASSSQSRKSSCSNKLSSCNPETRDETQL
Nature of the assay: Whole-cell APC in CHO-K1 cells stably expressing mouse WT SLACK. The format is cell-based. To be noted: for IC50: APC, CHO-K1 cells; for Imax: maximum inhibition at 30 µM standardized to VU0606170 (set at 100%). As for the experimental part: Finally, we chose to screen the same two compounds versus mouse SLACK and two clinically relevant GOF SLACK mutants in APC assays utilizing CHO-K1 cells stably expressing these targets (Table 7). Screening versus the mouse homolog was deemed important for evaluating the potential of the series to ultimately lead to a useful in vivo tool via further optimization.
Automated patch clamp recording was performed with a SyncroPatch 768 PE system (Nanion, Munich, Germany) as previously described. Whole-cell recordings were performed at room temperature. Cells were harvested by first washing with PBS without Mg^2+ or Ca^2+ (Gibco, Billings, MT, USA) to remove cell culture medium, followed by dissociation with TryPLE (Gibco, Billings, MT, USA). Cells were then resuspended and diluted to 200,000 cells/mL in external solution. External solution contained 105 mM NaCl, 4 mM KCl, 1 mM MgCl2, 5 mM CaCl2, 10 mM HEPES, 40 mM N-Methyl-D-glucamine chloride, titrated to pH 7.4 with NaOH and osmolarity of 300 mOsm/kg; internal solution contained 70 mM NaCl, 70 mM KF, 10 mM KCl, 5 mM EGTA, 5mM HEPES, titrated to a pH 7.2 with KOH and osmolarity of 295 mOsm/kg.
The APC protocol was set as following: Cells were held at […] −80 mV for 100 ms, then a ramp protocol was performed from −100 mV to 80 mV at 0.4 mV/ms, hold the cell at −80 mV for another 100 ms, then steps were performed at −20 mV, 0 mV, +20 mV, +40 mV, and +60 mV for 100 ms of each step. Whole-cell currents were measured at 0 mV and normalized to current after external buffer addition.

With `CC(C)(Oc1ccc(Cl)cc1)C(=O)Nc1cnc(Oc2c(F)cccc2F)nc1` [Analog 40], the IC50 is 320 nM and the Imax is on record as 100%.

For `CN(c1ccc(C#N)cc1)c1ncc(NC(=O)C(C)(C)Oc2ccc(Cl)cc2)cn1` [Analog 66], the IC50 turned out to be 790 nM and the Imax is 91%.
